The text below walks through data of ChEMBL document CHEMBL1159136, “Dipeptide mimetics can substitute for the receptor activation domain resulting in highly potent analogues of hPTH(136)” (Bioorg Med Chem Lett, 1996).

Square brackets hold non-standard residues; d marks the D form. Peptide text beside a SMILES is read from it. NMeV = CN[C@H](C(=O)O)C(C)C; NMeA = CN[C@@H](C)C(=O)O

The subject of experiment [1] is OK-1. The experiment is described as follows: Displacement of [125I]-chick PTHrP-(1-36)-NH2 from opossum (OK-1) kidney cells. The format is functional. On the technique in general: Displacement assays read how much labelled ligand stays bound in the presence of the test substance.
The subject of experiment [2] is UMR106-06. The experiment is described as follows: Compound was evaluated for the intrinsic activity for accumulation of cyclic AMP in UMR10606 (rat osteosarcoma) cells. The class given is functional.
For experiment [3], the system named is OK-1. The experiment is described as follows: Compound was evaluated for the intrinsic activity for accumulation of cyclic AMP in OK-1 cells. The class given is functional, opossum.
The test system of experiment [4] is OK-1. In words: Accumulation of cyclic AMP in OK-1 cells. The format is functional, cell-based, opossum. The settings on record: opossum, OK-1.
In experiment [5] the test system is UMR106-06. The experiment is described as follows: Compound was evaluated for the accumulation of cyclic AMP in UMR10606 (rat osteosarcoma) cells. Particulars: Rattus norvegicus, UMR106-06. The class given is functional, cell-based.

Take `CC[C@H](C)[C@H](NC(=O)[C@H](CCC(=O)O)NC(=O)[C@H](CO)NC(=O)[C@H](C(C)C)N(C)C(=O)[C@H](C)N)C(=O)N[C@@H](CCC(N)=O)C(=O)N[C@@H](CC(C)C)C(=O)N[C@@H](CCSC)C(=O)N[C@@H](Cc1c[nH]cn1)C(=O)N[C@@H](CC(N)=O)C(=O)N[C@@H](CC(C)C)C(=O)NCC(=O)N[C@@H](CCCCN)C(=O)N[C@@H](Cc1c[nH]cn1)C(=O)N[C@@H](CC(C)C)C(=O)N[C@@H](CC(N)=O)C(=O)N[C@@H](CO)C(=O)N[C@@H](CCSC)C(=O)N[C@@H](CCC(=O)O)C(=O)N[C@@H](CCCN=C(N)N)C(=O)N[C@H](C(=O)N[C@@H](CCC(=O)O)C(=O)N[C@@H](Cc1c[nH]c2ccccc12)C(=O)N[C@@H](CC(C)C)C(=O)N[C@@H](CCCN=C(N)N)C(=O)N[C@@H](CCCCN)C(=O)N[C@@H](CCCCN)C(=O)N[C@@H](CC(C)C)C(=O)N[C@@H](CCC(N)=O)C(=O)N[C@@H](CC(=O)O)C(=O)N[C@H](C(=O)N[C@@H](Cc1c[nH]cn1)C(=O)N[C@@H](CC(N)=O)C(=O)N[C@@H](Cc1ccccc1)C(=O)N[C@H](C(=O)N[C@@H](C)C(N)=O)C(C)C)C(C)C)C(C)C` (H-A[NMeV]SEIQLMHNLGKHLNSMERVEWLRKKLQDVHNFVA-NH2): in the experiment with OK-1 [1], the pKD (in general, the negative decadic logarithm of the KD, by convention in mol/L) came out at 8.4. Besides, the Intrinsic activity in the experiment on UMR106-06 [2] amounted to 0.9; in the experiment with OK-1 [3] it was 1. In addition, the EC50 (in general, the concentration needed to bring the measured effect to its halfway point) with OK-1 [4] came out at 3.5 nM; with UMR106-06 [5], 4.4 nM.

Take `CC[C@H](C)[C@H](NC(=O)[C@H](CCC(=O)O)NC(=O)[C@H](CO)NC(=O)[C@H](C(C)C)N(C)C(=O)[C@H](C)NC)C(=O)N[C@@H](CCC(N)=O)C(=O)N[C@@H](CC(C)C)C(=O)N[C@@H](CCSC)C(=O)N[C@@H](Cc1c[nH]cn1)C(=O)N[C@@H](CC(N)=O)C(=O)N[C@@H](CC(C)C)C(=O)NCC(=O)N[C@@H](CCCCN)C(=O)N[C@@H](Cc1c[nH]cn1)C(=O)N[C@@H](CC(C)C)C(=O)N[C@@H](CC(N)=O)C(=O)N[C@@H](CO)C(=O)N[C@@H](CCSC)C(=O)N[C@@H](CCC(=O)O)C(=O)N[C@@H](CCCN=C(N)N)C(=O)N[C@H](C(=O)N[C@@H](CCC(=O)O)C(=O)N[C@@H](Cc1c[nH]c2ccccc12)C(=O)N[C@@H](CC(C)C)C(=O)N[C@@H](CCCN=C(N)N)C(=O)N[C@@H](CCCCN)C(=O)N[C@@H](CCCCN)C(=O)N[C@@H](CC(C)C)C(=O)N[C@@H](CCC(N)=O)C(=O)N[C@@H](CC(=O)O)C(=O)N[C@H](C(=O)N[C@@H](Cc1c[nH]cn1)C(=O)N[C@@H](CC(N)=O)C(=O)N[C@@H](Cc1ccccc1)C(=O)N[C@H](C(=O)N[C@@H](C)C(N)=O)C(C)C)C(C)C)C(C)C` (H-[NMeA][NMeV]SEIQLMHNLGKHLNSMERVEWLRKKLQDVHNFVA-NH2): in the experiment with OK-1 [1], the pKD was 8.5. Also, the Intrinsic activity in the experiment with UMR106-06 [2] and with OK-1 [3] was 1 in each case. For the same compound, the EC50 in the experiment with OK-1 [4] was 6.5 nM; in the experiment with UMR106-06 [5] it was 4.9 nM.
